Data taken from patent US9204653B2, “5-fluoro pyrimidine derivatives” (DOW AGROSCIENCES LLC, priority 2008, dated 2015).

System: Mycosphaerella graminicola; Anamorph: Septoria tritici; Bayer Code SEPTTR
Experiment: Leaf blotch of wheat, foliar fungicide treatment, one day protectant (1DP) or three day curative (3DC)
Format: in vivo, Septoria tritici on wheat plants (variety Yuma)
Details: Zymoseptoria tritici, 24 h, % disease control rating, one day protectant

## Nc1nc(OCC2CCCCC2)ncc1F [Compound 846]
  pest or weed control at 50 ppm: 0 to 25%
  pest or weed control at 200 ppm: 26 to 50%

## Nc1nc(OCc2c(Cl)cccc2Cl)ncc1F [Compound 847]
  pest or weed control at 50 ppm: 76 to 100%

## Nc1nc(OC2CCCCC2)ncc1F [Compound 848]
  pest or weed control at 50 ppm: 0 to 25%
  pest or weed control at 200 ppm: 0 to 25%

## COc1ncc(F)c(N)n1 [Compound 850]
  pest or weed control at 50 ppm: 0 to 25%
  pest or weed control at 200 ppm: 51 to 75%

## Fc1ccc(COc2ncc(F)c(NCc3ccc(Cl)cc3)n2)cc1F [Compound 851]
  pest or weed control at 50 ppm: 76 to 100%
  pest or weed control at 200 ppm: 76 to 100%

## Fc1ccccc1COc1ncc(F)c(NC2CC2)n1 [Compound 852]
  pest or weed control at 50 ppm: 51 to 75%
  pest or weed control at 200 ppm: 76 to 100%

## CCOc1ncc(F)c(N)n1 [Compound 853]
  pest or weed control at 50 ppm: 0 to 25%
  pest or weed control at 200 ppm: 0 to 25%

## Cc1ccc(COc2ncc(F)c(NCc3ccc4c(c3)OCO4)n2)cc1 [Compound 854]
  pest or weed control at 50 ppm: 51 to 75%
  pest or weed control at 200 ppm: 76 to 100%

## Fc1cnc(OCc2ccc(OC(F)(F)F)cc2)nc1NC1CC1 [Compound 855]
  pest or weed control at 200 ppm: 76 to 100%

## Nc1nc(OCc2ccncc2)ncc1F [Compound 856]
  pest or weed control at 200 ppm: 76 to 100%

## Fc1cnc(OCc2ccco2)nc1NCc1ccc2c(c1)OCO2 [Compound 859]
  pest or weed control at 50 ppm: 76 to 100%
  pest or weed control at 200 ppm: 76 to 100%

## Fc1cnc(OCC(F)(F)F)nc1NCCc1ccccc1 [Compound 861]
  pest or weed control at 50 ppm: 0 to 25%
  pest or weed control at 200 ppm: 26 to 50%

## Fc1cnc(OCCc2ccccc2)nc1NCCc1ccccc1 [Compound 862]
  pest or weed control at 50 ppm: 51 to 75%
  pest or weed control at 200 ppm: 76 to 100%

## Fc1ccccc1CNc1nc(OCc2ccc(Cl)cc2Cl)ncc1F [Compound 863]
  pest or weed control at 50 ppm: 76 to 100%
  pest or weed control at 200 ppm: 76 to 100%

## Nc1nc(OCC(F)(F)F)ncc1F [Compound 864]
  pest or weed control at 50 ppm: 0 to 25%
  pest or weed control at 200 ppm: 26 to 50%

## COc1ccccc1COc1ncc(F)c(NCc2ccccc2F)n1 [Compound 865]
  pest or weed control at 50 ppm: 26 to 50%
  pest or weed control at 200 ppm: 76 to 100%

## Fc1cnc(OCc2cccs2)nc1NC1CC1 [Compound 866]
  pest or weed control at 50 ppm: 0 to 25%
  pest or weed control at 200 ppm: 76 to 100%

## Fc1ccc(COc2ncc(F)c(NCc3cccs3)n2)cc1 [Compound 867]
  pest or weed control at 50 ppm: 76 to 100%
  pest or weed control at 200 ppm: 76 to 100%

## Fc1cnc(OCc2cc(Cl)cc(Cl)c2)nc1NCc1ccc(Cl)cc1 [Compound 868]
  pest or weed control at 50 ppm: 51 to 75%
  pest or weed control at 200 ppm: 76 to 100%

## COc1ccccc1COc1ncc(F)c(NCc2cccs2)n1 [Compound 869]
  pest or weed control at 200 ppm: 76 to 100%

## Fc1cnc(OCc2cc(Cl)cc(Cl)c2)nc1NC1CC1 [Compound 870]
  pest or weed control at 200 ppm: 76 to 100%

## Cc1ccc(CNc2nc(OCCc3ccccc3)ncc2F)cc1 [Compound 871]
  pest or weed control at 50 ppm: 0 to 25%
  pest or weed control at 200 ppm: 26 to 50%

## Cc1ccc(CNc2nc(OCC(F)(F)F)ncc2F)cc1 [Compound 872]
  pest or weed control at 50 ppm: 26 to 50%
  pest or weed control at 200 ppm: 51 to 75%

## Fc1cnc(OCc2ccco2)nc1NCc1ccc(Cl)nc1 [Compound 873]
  pest or weed control at 50 ppm: 0 to 25%
  pest or weed control at 200 ppm: 0 to 25%

## Fc1cnc(OCc2cccs2)nc1NCc1ccc(Cl)nc1 [Compound 874]
  pest or weed control at 50 ppm: 0 to 25%
  pest or weed control at 200 ppm: 0 to 25%

## Cc1ccc(CNc2nc(OC3CCCCC3)ncc2F)cc1 [Compound 875]
  pest or weed control at 50 ppm: 0 to 25%
  pest or weed control at 200 ppm: 76 to 100%

## Fc1cnc(OCc2c(Cl)cccc2Cl)nc1NC1CC1 [Compound 877]
  pest or weed control at 200 ppm: 76 to 100%

## Nc1nc(OCc2cccc(Oc3ccccc3)c2)ncc1F [Compound 878]
  pest or weed control at 50 ppm: 76 to 100%
  pest or weed control at 200 ppm: 76 to 100%

## Fc1cnc(OCc2ccccc2Cl)nc1NCc1ccc(Cl)cc1 [Compound 879]
  pest or weed control at 50 ppm: 76 to 100%
  pest or weed control at 200 ppm: 76 to 100%

## Fc1cnc(OCCc2ccccc2)nc1NCc1ccc(Cl)nc1 [Compound 880]
  pest or weed control at 50 ppm: 0 to 25%
  pest or weed control at 200 ppm: 26 to 50%

## Cc1ccc(COc2ncc(F)c(NC3CC3)n2)cc1 [Compound 881]
  pest or weed control at 50 ppm: 76 to 100%
  pest or weed control at 200 ppm: 76 to 100%

## Fc1ccc(COc2ncc(F)c(NCc3ccc4c(c3)OCO4)n2)cc1 [Compound 882]
  pest or weed control at 50 ppm: 76 to 100%
  pest or weed control at 200 ppm: 76 to 100%

## Fc1ccccc1CNc1nc(OCc2ccc(Cl)c(Cl)c2)ncc1F [Compound 883]
  pest or weed control at 50 ppm: 76 to 100%
  pest or weed control at 200 ppm: 76 to 100%

## CCOCCOc1cccc(COc2ncc(F)c(NC(C)=O)n2)c1 [Compound 884]
  pest or weed control at 50 ppm: 76 to 100%
  pest or weed control at 200 ppm: 76 to 100%

## Fc1cnc(OCc2ccc(Cl)cc2)nc1NCC(F)(F)F [Compound 885]
  pest or weed control at 50 ppm: 26 to 50%
  pest or weed control at 200 ppm: 51 to 75%

## Cc1cnc(CNc2nc(OCc3ccc(Cl)cc3)ncc2F)cn1 [Compound 886]
  pest or weed control at 50 ppm: 76 to 100%
  pest or weed control at 200 ppm: 76 to 100%

## Fc1cnc(OCc2cccc(Cl)c2)nc1NC1CC1 [Compound 887]
  pest or weed control at 200 ppm: 76 to 100%

## Fc1ccccc1CNc1nc(OCc2ccccn2)ncc1F [Compound 888]
  pest or weed control at 50 ppm: 0 to 25%
  pest or weed control at 200 ppm: 51 to 75%

## Fc1ccc(COc2ncc(F)c(NCc3cccs3)n2)cc1F [Compound 890]
  pest or weed control at 200 ppm: 76 to 100%

## Nc1nc(OCc2ccccn2)ncc1F [Compound 891]
  pest or weed control at 50 ppm: 76 to 100%
  pest or weed control at 200 ppm: 76 to 100%

## Cc1ccc(COc2ncc(F)c(NCc3ccc(Cl)cc3)n2)cc1 [Compound 892]
  pest or weed control at 50 ppm: 51 to 75%
  pest or weed control at 200 ppm: 76 to 100%

## Fc1ccccc1CNc1nc(OCc2ccccc2Cl)ncc1F [Compound 893]
  pest or weed control at 50 ppm: 76 to 100%
  pest or weed control at 200 ppm: 76 to 100%

## Fc1cnc(OCc2ccc(C(F)(F)F)cc2)nc1NCc1cccs1 [Compound 896]
  pest or weed control at 200 ppm: 76 to 100%

## Fc1ccc(COc2ncc(F)c(N3CCOCC3)n2)cc1 [Compound 897]
  pest or weed control at 50 ppm: 0 to 25%
  pest or weed control at 200 ppm: 51 to 75%

## Fc1cnc(OCc2ccco2)nc1NC1CC1 [Compound 898]
  pest or weed control at 50 ppm: 0 to 25%
  pest or weed control at 200 ppm: 0 to 25%

## Fc1cnc(OCc2ccco2)nc1NCc1cccs1 [Compound 899]
  pest or weed control at 50 ppm: 26 to 50%
  pest or weed control at 200 ppm: 76 to 100%

## Cc1cnc(CNc2nc(OCc3ccc(F)cc3)ncc2F)cn1 [Compound 900]
  pest or weed control at 50 ppm: 51 to 75%
  pest or weed control at 200 ppm: 76 to 100%

## Fc1ccc(COc2ncc(F)c(NCc3ccc(Cl)nc3)n2)cc1 [Compound 901]
  pest or weed control at 50 ppm: 51 to 75%
  pest or weed control at 200 ppm: 76 to 100%

## Fc1cnc(OCc2ccncc2)nc1NCc1cccs1 [Compound 902]
  pest or weed control at 200 ppm: 76 to 100%

## Fc1cnc(OC2CCCCC2)nc1NCc1ccc(Cl)cc1 [Compound 903]
  pest or weed control at 50 ppm: 0 to 25%
  pest or weed control at 200 ppm: 76 to 100%

## Fc1cnc(OCCc2ccccc2)nc1NCc1ccc2c(c1)OCO2 [Compound 904]
  pest or weed control at 50 ppm: 0 to 25%
  pest or weed control at 200 ppm: 26 to 50%

## Fc1cnc(OCC(F)(F)F)nc1NCc1ccc(Cl)cc1 [Compound 905]
  pest or weed control at 50 ppm: 26 to 50%
  pest or weed control at 200 ppm: 51 to 75%

## COc1ccc(COc2ncc(F)c(NCc3cccs3)n2)cc1 [Compound 906]
  pest or weed control at 200 ppm: 76 to 100%

## Fc1ccccc1CNc1nc(OCc2cc(Cl)cc(Cl)c2)ncc1F [Compound 907]
  pest or weed control at 50 ppm: 51 to 75%
  pest or weed control at 200 ppm: 76 to 100%

## Fc1cnc(OCc2ccc(Cl)cc2)nc1NCCc1ccccc1 [Compound 908]
  pest or weed control at 50 ppm: 76 to 100%
  pest or weed control at 200 ppm: 76 to 100%

## Fc1cnc(OCc2ccc(Cl)c(Cl)c2)nc1NC1CC1 [Compound 909]
  pest or weed control at 200 ppm: 76 to 100%

## Fc1cccc(COc2ncc(F)c(NCc3cccs3)n2)c1 [Compound 910]
  pest or weed control at 200 ppm: 76 to 100%

## Fc1cnc(OCCc2ccccc2)nc1NCc1ccc(Cl)cc1 [Compound 911]
  pest or weed control at 50 ppm: 0 to 25%
  pest or weed control at 200 ppm: 0 to 25%

## Fc1cnc(OCc2cccc(Cl)c2)nc1NCc1cccs1 [Compound 912]
  pest or weed control at 200 ppm: 76 to 100%

## Fc1ccccc1CNc1nc(OCc2ccncc2)ncc1F [Compound 913]
  pest or weed control at 50 ppm: 76 to 100%
  pest or weed control at 200 ppm: 76 to 100%

## Cc1ccc(CNc2nc(OCc3ccco3)ncc2F)cc1 [Compound 914]
  pest or weed control at 50 ppm: 0 to 25%
  pest or weed control at 200 ppm: 76 to 100%

## Fc1cnc(OCC(F)(F)F)nc1NCc1ccc(Cl)nc1 [Compound 915]
  pest or weed control at 50 ppm: 0 to 25%
  pest or weed control at 200 ppm: 0 to 25%

## Cc1ccc(COc2ncc(F)c(NCc3cnc(C)cn3)n2)cc1 [Compound 916]
  pest or weed control at 50 ppm: 76 to 100%
  pest or weed control at 200 ppm: 76 to 100%

## C=CCOc1ncc(F)c(NCc2ccccc2F)n1 [Compound 917]
  pest or weed control at 50 ppm: 0 to 25%
  pest or weed control at 200 ppm: 51 to 75%

## Fc1ccccc1CNc1nc(OCc2ccc(Cl)cc2)ncc1F [Compound 918]
  pest or weed control at 50 ppm: 76 to 100%
  pest or weed control at 200 ppm: 76 to 100%

## Fc1cnc(OCc2ccc3c(c2)OCO3)nc1NC1CC1 [Compound 919]
  pest or weed control at 200 ppm: 76 to 100%

## Cc1ccc(CNc2nc(OCc3ccc(Cl)cc3)ncc2F)cc1 [Compound 920]
  pest or weed control at 50 ppm: 76 to 100%
  pest or weed control at 200 ppm: 76 to 100%

## Fc1ccc(COc2ncc(F)c(NCc3ccccc3F)n2)c(F)c1 [Compound 921]
  pest or weed control at 50 ppm: 76 to 100%
  pest or weed control at 200 ppm: 76 to 100%

## Cc1ccc(CNc2nc(OCc3cccs3)ncc2F)cc1 [Compound 922]
  pest or weed control at 50 ppm: 51 to 75%
  pest or weed control at 200 ppm: 26 to 50%

## Fc1ccc(COc2ncc(F)c(NCc3cccs3)n2)c(F)c1 [Compound 923]
  pest or weed control at 200 ppm: 76 to 100%

## Fc1ccccc1CNc1nc(OCc2cccc(Cl)c2)ncc1F [Compound 924]
  pest or weed control at 50 ppm: 76 to 100%
  pest or weed control at 200 ppm: 76 to 100%

## Fc1cnc(OCc2ccc(Cl)cc2)nc1N1CCOCC1 [Compound 925]
  pest or weed control at 50 ppm: 0 to 25%
  pest or weed control at 200 ppm: 0 to 25%

## Cc1ccc(COc2ncc(F)c(NCCc3ccccc3)n2)cc1 [Compound 926]
  pest or weed control at 50 ppm: 76 to 100%
  pest or weed control at 200 ppm: 76 to 100%

## Fc1ccc(COc2ncc(F)c(NC3CC3)n2)cc1 [Compound 927]
  pest or weed control at 50 ppm: 51 to 75%
  pest or weed control at 200 ppm: 76 to 100%
